In PubChem BioAssay AID248 (DTP/NCI, 2004):
Values joined by “and” are separate entries in the source; they are usually repeats but may differ in a detail not shown here. Equal values may be shown once. Inconclusive results and toxic doses are left out. Cut-off read from the data, not from the text of the source: active = T/C of 150% or more; inactive = T/C below 125%.

Test system: L1210 leukemia ip in BDF1 mice, survival T/C
Assay: NCI In Vivo Anticancer Drug Screen. Data for tumor model L1210 Leukemia (intraperitoneal) in B6D2F1 (BDF1) mice
Details: endpoint: mean survival time, higher = longer survival
Procedure, shortened: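 Transplantable tumor model; survival measured in treated vs vehicle control mice. Value = treated/control.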

[1] = dose: 50.0 mg/kg/injection, schedule: Q04DX003 (ip), vehicle: saline
[2] = dose: 100.0 mg/kg/injection, schedule: Q04DX003 (ip), vehicle: saline
[3] = dose: 6.25 mg/kg/injection, schedule: Q04DX003 (ip), vehicle: saline with Tween-80
[4] = dose: 12.5 mg/kg/injection, schedule: Q04DX003 (ip), vehicle: saline with Tween-80
[5] = dose: 25.0 mg/kg/injection, schedule: Q04DX003 (ip), vehicle: saline with Tween-80
[6] = dose: 50.0 mg/kg/injection, schedule: Q01DX009 (ip), vehicle: Klucel (hydroxypropylcellulose) (HPC)
[7] = dose: 100.0 mg/kg/injection, schedule: Q01DX009 (ip), vehicle: Klucel (hydroxypropylcellulose) (HPC)
[8] = dose: 100.0 mg/kg/injection, schedule: Q04DX003 (ip), vehicle: Klucel (hydroxypropylcellulose) (HPC)
[9] = dose: 200.0 mg/kg/injection, schedule: Q01DX009 (ip), vehicle: Klucel (hydroxypropylcellulose) (HPC)
[10] = dose: 200.0 mg/kg/injection, schedule: Q04DX003 (ip), vehicle: Klucel (hydroxypropylcellulose) (HPC)
[11] = dose: 400.0 mg/kg/injection, schedule: Q04DX003 (ip), vehicle: Klucel (hydroxypropylcellulose) (HPC)
[12] = dose: 200.0 mg/kg/injection, schedule: Q04DX003 (ip), vehicle: saline
[13] = dose: 100.0 mg/kg/injection, schedule: Q01DX009 (ip), vehicle: saline with Tween-80
[14] = dose: 200.0 mg/kg/injection, schedule: Q01DX009 (ip), vehicle: saline with Tween-80
[15] = dose: 100.0 mg/kg/injection, schedule: Q04DX003 (ip), vehicle: saline with Tween-80
[16] = dose: 200.0 mg/kg/injection, schedule: Q04DX003 (ip), vehicle: saline with Tween-80

Measured: T/C

CC(C(=O)Nc1ccc(Cl)c(Cl)c1)C(=O)Nc1ccc(Cl)c(Cl)c1
inactive: dose: 100.0 mg/kg/injection, schedule: Q04DX002 (ip), vehicle: gum acacia 92 % of control | dose: 200.0 mg/kg/injection, schedule: Q04DX002 (ip), vehicle: gum acacia 103 % of control | dose: 400.0 mg/kg/injection, schedule: Q04DX002 (ip), vehicle: gum acacia 99 % of control

CCCC(Cc1cccs1)C(=O)O (stereo not drawn)
inactive: dose: 100.0 mg/kg/injection, schedule: Q01DX001 (ip), vehicle: other 101 % of control | dose: 200.0 mg/kg/injection, schedule: Q01DX001 (ip), vehicle: other 97 % of control | dose: 400.0 mg/kg/injection, schedule: Q01DX001 (ip), vehicle: other 97 % of control

CCOc1cc(OCC)c(C=O)c(OCC)c1
inactive: dose: 100.0 mg/kg/injection, schedule: Q01DX009 (ip), vehicle: other 96 % of control | dose: 200.0 mg/kg/injection, schedule: Q01DX001 (ip), vehicle: saline 88 % of control | dose: 200.0 mg/kg/injection, schedule: Q01DX009 (ip), vehicle: other 94 % of control | dose: 400.0 mg/kg/injection, schedule: Q01DX001 (ip), vehicle: saline 102 % of control | dose: 400.0 mg/kg/injection, schedule: Q01DX009 (ip), vehicle: other 97 % of control

CCN(CC)CC(O)c1ccccc1 (stereo not drawn)
inactive: dose: 25.0 mg/kg/injection, schedule: Q01DX009 (ip), vehicle: saline 100 % of control | dose: 25.0 mg/kg/injection, schedule: Q04DX003 (ip), vehicle: saline 98 % of control | dose: 50.0 mg/kg/injection, schedule: Q01DX009 (ip), vehicle: saline 98 % of control | [1] 93 % of control | [2] 100 % of control

CCOc1ccccc1C1N(C)CCCN1C
inactive: [3] 99 % of control | [4] 100 % of control | [5] 99 % of control

Cc1ccc(S(=O)(=O)ON=C2c3ccccc3-c3ccccc32)cc1
inactive: dose: 25.0 mg/kg/injection, schedule: Q01DX009 (ip), vehicle: Klucel (hydroxypropylcellulose) (HPC) 96 % of control | [6] 96 % of control | dose: 100.0 mg/kg/injection, schedule: Q01DX001 (ip), vehicle: Klucel (hydroxypropylcellulose) (HPC) 101 % of control | [7] 100 % of control | [8] 98 % of control | dose: 200.0 mg/kg/injection, schedule: Q01DX001 (ip), vehicle: Klucel (hydroxypropylcellulose) (HPC) 99 % of control | [9] 88 % of control and 91 % of control | [10] 93 % of control | dose: 400.0 mg/kg/injection, schedule: Q01DX001 (ip), vehicle: Klucel (hydroxypropylcellulose) (HPC) 105 % of control | [11] 103 % of control

C=CC[Si](CC=C)(CC=C)OCC
inactive: dose: 150.0 mg/kg/injection, schedule: Q01DX001 (ip), vehicle: other 95 % of control | dose: 300.0 mg/kg/injection, schedule: Q01DX001 (ip), vehicle: other 101 % of control

CO/N=C1\C(C)(C)C(C)(C)C(C)(C)C1(C)SS(=O)(=O)O (stereo not drawn)
inactive: dose: 100.0 mg/kg/injection, schedule: Q04DX002 (ip), vehicle: saline 90 % of control | dose: 200.0 mg/kg/injection, schedule: Q04DX002 (ip), vehicle: saline 101 % of control | dose: 400.0 mg/kg/injection, schedule: Q04DX002 (ip), vehicle: saline 107 % of control

O=C(CBr)OCCCS(=O)(=O)O
inactive: dose: 100.0 mg/kg/injection, schedule: Q01DX009 (ip), vehicle: saline 96 % of control | [2] 105 % of control | dose: 200.0 mg/kg/injection, schedule: Q01DX009 (ip), vehicle: saline 113 % of control | [12] 104 % of control | dose: 400.0 mg/kg/injection, schedule: Q01DX009 (ip), vehicle: saline 102 % of control | dose: 400.0 mg/kg/injection, schedule: Q04DX003 (ip), vehicle: saline 93 % of control

CN(Cc1cnc2nc(N)nc(N)c2n1)c1ccccc1
inactive: dose: 20.0 mg/kg/injection, schedule: Q01DX009 (ip), vehicle: saline with Tween-80 97 % of control | dose: 40.0 mg/kg/injection, schedule: Q01DX009 (ip), vehicle: saline with Tween-80 101 % of control | dose: 80.0 mg/kg/injection, schedule: Q01DX009 (ip), vehicle: saline with Tween-80 98 % of control

CN(C)c1ccc2c(c1)oc(=O)c1ccccc12
inactive: dose: 50.0 mg/kg/injection, schedule: Q01DX001 (ip), vehicle: carboxymethylcellulose (CMC) 93 % of control | dose: 100.0 mg/kg/injection, schedule: Q01DX001 (ip), vehicle: carboxymethylcellulose (CMC) 104 % of control | dose: 200.0 mg/kg/injection, schedule: Q01DX001 (ip), vehicle: carboxymethylcellulose (CMC) 112 % of control | dose: 400.0 mg/kg/injection, schedule: Q01DX001 (ip), vehicle: carboxymethylcellulose (CMC) 91 % of control

ClCC1=Nc2c(Cl)ncnc2NN1
inactive: [3] 94 % of control | [4] 96 % of control | dose: 25.0 mg/kg/injection, schedule: Q01DX001 (ip), vehicle: saline with Tween-80 95 % of control | [5] 91 % of control

O=C(NC(C(=O)O)c1ccccc1)OCc1ccccc1 (stereo not drawn)
inactive: [13] 111 % of control and 97 % of control | [14] 91 % of control and 92 % of control | dose: 400.0 mg/kg/injection, schedule: Q01DX009 (ip), vehicle: saline with Tween-80 89 % of control and 93 % of control

CC1(C)C2CCC(I)(C2)C1O (stereo not drawn)
inactive: dose: 100.0 mg/kg/injection, schedule: Q01DX001 (ip), vehicle: saline with Tween-80 105 % of control | dose: 200.0 mg/kg/injection, schedule: Q01DX001 (ip), vehicle: saline with Tween-80 100 % of control | dose: 400.0 mg/kg/injection, schedule: Q01DX001 (ip), vehicle: saline with Tween-80 105 % of control

CCCNC(=O)OC/C=C\CC(Cl)(Cl)Cl
inactive: [6] 97 % of control | [7] 96 % of control | [8] 87 % of control | [9] 94 % of control | [10] 94 % of control | [11] 86 % of control

c1ccc(NC23CC4CC(CC(C4)C2)C3)cc1
inactive: dose: 50.0 mg/kg/injection, schedule: Q01DX009 (ip), vehicle: saline with Tween-80 102 % of control | [13] 97 % of control | [15] 94 % of control | [14] 88 % of control | [16] 92 % of control | dose: 300.0 mg/kg/injection, schedule: Q01DX009 (ip), vehicle: saline with Tween-80 98 % of control

CC(=O)Nc1ccc(C(=O)O)c(O)c1
inactive: [1] 113 % of control | [2] 108 % of control | [12] 105 % of control

COc1ccc(/C=N/n2c(=O)[nH]nc(C)c2=O)c(OC)c1OC
inactive: dose: 100.0 mg/kg/injection, schedule: Q01DX009 (ip), vehicle: acetone 96 % of control | [15] 112 % of control | dose: 200.0 mg/kg/injection, schedule: Q01DX009 (ip), vehicle: acetone 93 % of control | [16] 117 % of control | dose: 400.0 mg/kg/injection, schedule: Q01DX009 (ip), vehicle: acetone 102 % of control | dose: 400.0 mg/kg/injection, schedule: Q04DX003 (ip), vehicle: saline with Tween-80 109 % of control
